Experimental data from patent publication US10946094B2, “Adenoassociated viral mediated persistant anti-VEGF therapy for ovarian cancer” (Cornell University, priority 2015, dated 2021).

Columns and labels:
[1] = test system: A2780 ovarian cancer cells; test: Survival of A2780 tumor-bearing mice pretreated with chemotherapeutic, followed by AAV vector; type: in vivo, Balb/c nude mice; settings: for Efficacy as single agents at the doses and schedules used: survival of A2780 tumor-bearing mice
Method: Xenografts of human ovarian cancer cells were established by administering 5 million A2780 ovarian cancer cells intraperitoneally in 6 to 8 week old female Balb/c nude mice. Survival was analyzed in the mice which were either left untreated, treated with the chemotherapeutic topotecan in combination with an AAV vector, or treated with the chemotherapeutic paclitaxel in combination with an AAV vector. To establish the topotecan-AAVrh. 10BevMab combination treatment model, 2 weeks after injection of the A2780 ovarian cancer cells, the mice were treated with topotecan at 0.625 mg/kg body weight/day, 5 times/week for 3 weeks (see, Delord et al., Ann. Oncol., 16: 1889-1897 (2005)). […] To establish the paclitaxel-AAVrh.10BevMab combination treatment model, 1 week after injection of the A2780 ovarian cancer cells, the mice were treated with paclitaxel at 20 mg/kg body weight, once/week for 2 weeks (see, Vassileva et al., Mol Cancer Ther., 7: 630-637 (2008)).

recurrent ovarian cancer = settings: single agent, patients with recurrent ovarian cancer; cited from earlier work

Row | Compound | Efficacy as single agents at the doses and schedules used [1] | Median survival ([1]; topotecan model: 0.625 mg/kg/day, 5 times/week for 3 weeks from week 2, vector at week 5) | Median survival ([1]; paclitaxel model: 20 mg/kg once/week for 2 weeks from week 1, vector at week 3) | Responsive rate (recurrent ovarian cancer)
1 | CC[C@@]1(O)C(=O)OCc2c1cc1n(c2=O)Cc2cc3c(CN(C)C)c(O)ccc3nc2-1 [Topotecan, topotecan] | efficacious | 50 days | – | –
2 | CC(=O)O[C@H]1C(=O)[C@@]2(C)[C@H]([C@H](OC(=O)c3ccccc3)[C@]3(O)C[C@H](OC(=O)[C@H](O)[C@@H](NC(=O)c4ccccc4)c4ccccc4)C(C)=C1C3(C)C)[C@]1(OC(C)=O)CO[C@@H]1C[C@@H]2O [paclitaxel] | efficacious | – | 31 days | –
3 | Bevacizumab | – | – | – | 21%
